Results from ChEMBL document CHEMBL6121025, “Novel Compounds as CDK2 Inhibitors for Treating Cancer” (ACS Med Chem Lett, 2025).

target: Cyclin-dependent kinase 2/cyclin E1 (Homo sapiens) (UniProt P24864+P24941); assay: Inhibition of C-terminal Avi-tagged CDK2/Cyclin E1 (unknown origin) extracted from Escherichia coli assessed as reduction in RB1 phosphorylation at S780 residue incubated for 60 mins in the presence of ATP by TR-FRET assay; assay type: protein-complex assay

INH [µM]	SMILES
0.006	O=C1N([C@@H]2CCC[C@@H](O)C2)c2nc(Nc3c[nH]nc3O[C@H]3CC3(F)F)ncc2C12CC2
0.006	O=C1N([C@@H]2CCC[C@@H](O)C2)c2nc(Nc3c[nH]nc3O[C@@H]3CC3(F)F)ncc2C12CC2
0.005	O=C1N([C@@H]2CCC[C@@H](O)C2)c2nc(Nc3c[nH]nc3OCC(F)F)ncc2C12CC2
0.007	O=C1N([C@@H]2CCC[C@@H](O)C2)c2nc(Nc3c[nH]nc3C(F)F)ncc2C12CC2

The next lines start with the molecule.

SMILES	INH [µM]
O=C1N([C@@H]2CCC[C@@H](O)C2)c2nc(Nc3c[nH]nc3-c3cnn4cccnc34)ncc2C12CC2	0.006
O=C1N([C@@H]2CCC[C@@H](O)C2)c2nc(Nc3c[nH]nc3[C@H]3CC3(F)F)ncc2C12CC2	0.006
